Measured values from the supplement of paper PMC11061612.

Columns and labels:
[1] = tested on: COLO-668 (Small Cell Lung Carcinoma); assay: Bliss excess, mean over the matrix (fraction); higher = more synergy
In short: (§1)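 Bliss excess equals the observed combination effect minus the expected value EA + EB − EA·EB, where EA and EB are the effects of each agent alone. Combination Emax is the second-highest inhibition within the matrix. Inhibition was scaled from CellTiter-Glo 2.0 luminescence, with 0 set by vehicle wells and 1 by blank wells, after 72 hours of two-drug dosing of cells plated in 1536-well plates.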

[2] = tested on: SW872 (Other Solid Carcinomas); assay: as above
In short: as §1

[3] = tested on: COLO-668 (Small Cell Lung Carcinoma); assay: combination Emax (second highest fraction inhibited in the dose matrix, 72 h); higher = more inhibition; extreme values may be limits of the assay
In short: as §1

[4] = tested on: Ca-Ski (Cervical Carcinoma); assay: as above
In short: as §1

[5] = tested on: DU-145 (Prostate Carcinoma); assay: as above
In short: as §1

[6] = tested on: EFO-21 (Ovarian Carcinoma); assay: as above
In short: as §1

[7] = tested on: EJM (Plasma Cell Myeloma); assay: as above
In short: as §1

[8] = tested on: G-401 (Other Solid Carcinomas); assay: as above
In short: as §1

[9] = tested on: HCC1500 (Breast Carcinoma); assay: as above
In short: as §1

[10] = tested on: HCC1937 (Breast Carcinoma); assay: as above
In short: as §1

[11] = tested on: NCI-H1092 (Small Cell Lung Carcinoma); assay: as above
In short: as §1

[12] = tested on: NCI-H1355 (Lung Adenocarcinoma); assay: as above
In short: as §1

[13] = tested on: NCI-H1838 (Lung Adenocarcinoma); assay: as above
In short: as §1

[14] = tested on: NCI-H2122 (Lung Adenocarcinoma); assay: as above
In short: as §1

[15] = tested on: NCI-H522 (Lung Adenocarcinoma); assay: as above
In short: as §1

[16] = tested on: OE33 (Esophageal Adenocarcinoma); assay: as above
In short: as §1

[17] = tested on: SK-LU-1 (Lung Adenocarcinoma); assay: as above
In short: as §1

SK-N-AS (Neuroblastoma) = assay: as above
In short: as §1

[18] = tested on: SNU-387 (Hepatocellular Carcinoma); assay: as above
In short: as §1

[19] = tested on: SW982 (Other Solid Carcinomas); assay: as above
In short: as §1

SMILES | Bliss excess [1] | Bliss excess [2] | combination Emax [3] | combination Emax [4] | combination Emax [5] | combination Emax [6] | combination Emax [7] | combination Emax [8] | combination Emax [9] | combination Emax [10] | combination Emax [11] | combination Emax [12] | combination Emax [13] | combination Emax [14] | combination Emax [15] | combination Emax [16] | combination Emax [17] | combination Emax (SK-N-AS (Neuroblastoma)) | combination Emax [18] | combination Emax [19]
CN(C)CCCOc1ccc(-c2ccc3ncc4c(c3c2)n(C2CCOCC2)c(=O)n4C)cn1 [AZD0156] + O=C(c1cc(Cc2n[nH]c(=O)c3ccccc23)ccc1F)N1CCN(C(=O)C2CC2)CC1 [Olaparib] (first compound max 3 µM, partner max 3 µM) | -0.0077 | -0.0318 | 0.179 | 0.304 | 0.0116 | 0.252 | 0.341 | 0.3 | 0.403 | 0.228 | 0.304 | 0.305 | 0.21 | 0.355 | 0.258 | 0.207 | 0.334 | 0.169 | 0.405 | 0.4
NC1(C(=O)N[C@@H](CCO)c2ccc(Cl)cc2)CCN(c2ncnc3[nH]ccc23)CC1 [Capivasertib] + CCN(CCO)CCCOc1ccc2c(Nc3cc(CC(=O)Nc4cccc(F)c4)[nH]n3)ncnc2c1 [AZD2811] (first compound max 10 µM, 7x7, partner max 1 µM) | 0.0318 | -0.0384 | 0.454 | 0.465 | 0.219 | 0.235 | 0.43 | 0.658 | 0.265 | 0.481 | 0.353 | 0.425 | 0.386 | 0.797 | 0.226 | 0.202 | 0.195 | 0.329 | 0.312 | 0.672
NC1(C(=O)N[C@@H](CCO)c2ccc(Cl)cc2)CCN(c2ncnc3[nH]ccc23)CC1 [Capivasertib] + C[C@@H]1COCCN1C2=NC(=NC(=C2)C3(CC3)[S@](=N)(=O)C)C4=C5C=CNC5=NC=C4 [AZD6738] (first compound max 10 µM, 7x7, partner max 10 µM) | -0.0501 | -0.0244 | 0.677 | 0.582 | 0.398 | 0.415 | 0.908 | 0.751 | 0.335 | 0.518 | 0.387 | 0.773 | 0.494 | 0.974 | 0.251 | 0.748 | 0.511 | 0.738 | 0.613 | 0.727
NC1(C(=O)N[C@@H](CCO)c2ccc(Cl)cc2)CCN(c2ncnc3[nH]ccc23)CC1 [Capivasertib] + COc1nnc2ccc(N3CCC(c4ccc(OCCN5CCN(C)C(=O)[C@H]5C)cc4)CC3)nn12 [AZD5153] (first compound max 10 µM, 7x7, partner max 1 µM) | 0.0552 | -0.0399 | 0.786 | 0.591 | 0.251 | 0.321 | 0.658 | 0.79 | 0.264 | 0.44 | 0.364 | 0.503 | 0.264 | 0.817 | 0.381 | 0.319 | 0.381 | 0.445 | 0.552 | 0.848
Cc1c2c(nn1C)CSCc1cc(n(C)n1)CSc1cc(c3ccccc3c1)OCCCc1c(C(=O)O)n(C)c3c-2c(Cl)ccc13 [AZD5991] + CN(C)CCCOc1ccc(-c2ccc3ncc4c(c3c2)n(C2CCOCC2)c(=O)n4C)cn1 [AZD0156] (first compound max 1 µM, 7x7, partner max 1 µM) | 0.0135 | 0.0164 | 0.222 | 0.303 | 0.192 | 0.247 | 0.965 | 0.733 | 0.53 | 0.333 | 0.562 | 0.263 | 0.464 | 0.656 | 0.387 | 0.156 | 0.3 | 0.614 | 0.376 | 0.258
COc1nnc2ccc(N3CCC(c4ccc(OCCN5CCN(C)C(=O)[C@H]5C)cc4)CC3)nn12 [AZD5153] + CCN(CCO)CCCOc1ccc2c(Nc3cc(CC(=O)Nc4cccc(F)c4)[nH]n3)ncnc2c1 [AZD2811] (first compound max 1 µM, 7x7, partner max 1 µM) | -0.0268 | -0.0335 | 0.264 | 0.591 | 0.265 | 0.425 | 0.613 | 0.806 | 0.41 | 0.383 | 0.374 | 0.509 | 0.441 | 0.853 | 0.344 | 0.301 | 0.404 | 0.447 | 0.487 | 0.807
